Data reported in US11866450B2, “Modulators of Cystic Fibrosis Transmembrane Conductance regulator, pharmaceutical compositions, methods of treatment, and process for making the modulators” (priority 2018, dated 2024).

Molecular target: CFTR-mediated chloride transport (Homo sapiens, UniProt P13569)
Assay type: cell-based
Settings: enteroid cells incubated with test compound 18-24 hours, acute 10 μM forskolin and 300 nM Compound III; for Max. Activity: % of chloride transport with 3 μM Compound A, 3 μM Compound II and 300 nM acute Compound III triple combination control
Procedure, shortened: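 Human intestinal enteroid cells incubated with compound 18–24 h at 37° C., then membrane potential dye (FLIPR) read 15 min after chloride-free stimulation with 10 μM forskolin, 100 μM IBMX and 300 nM Compound III. AUC expressed as % of triple-combination control (3 μM Compound A, 3 μM Compound II, 300 nM Compound III).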

Sequence of CFTR-mediated chloride transport (P13569 whole entry, looked up): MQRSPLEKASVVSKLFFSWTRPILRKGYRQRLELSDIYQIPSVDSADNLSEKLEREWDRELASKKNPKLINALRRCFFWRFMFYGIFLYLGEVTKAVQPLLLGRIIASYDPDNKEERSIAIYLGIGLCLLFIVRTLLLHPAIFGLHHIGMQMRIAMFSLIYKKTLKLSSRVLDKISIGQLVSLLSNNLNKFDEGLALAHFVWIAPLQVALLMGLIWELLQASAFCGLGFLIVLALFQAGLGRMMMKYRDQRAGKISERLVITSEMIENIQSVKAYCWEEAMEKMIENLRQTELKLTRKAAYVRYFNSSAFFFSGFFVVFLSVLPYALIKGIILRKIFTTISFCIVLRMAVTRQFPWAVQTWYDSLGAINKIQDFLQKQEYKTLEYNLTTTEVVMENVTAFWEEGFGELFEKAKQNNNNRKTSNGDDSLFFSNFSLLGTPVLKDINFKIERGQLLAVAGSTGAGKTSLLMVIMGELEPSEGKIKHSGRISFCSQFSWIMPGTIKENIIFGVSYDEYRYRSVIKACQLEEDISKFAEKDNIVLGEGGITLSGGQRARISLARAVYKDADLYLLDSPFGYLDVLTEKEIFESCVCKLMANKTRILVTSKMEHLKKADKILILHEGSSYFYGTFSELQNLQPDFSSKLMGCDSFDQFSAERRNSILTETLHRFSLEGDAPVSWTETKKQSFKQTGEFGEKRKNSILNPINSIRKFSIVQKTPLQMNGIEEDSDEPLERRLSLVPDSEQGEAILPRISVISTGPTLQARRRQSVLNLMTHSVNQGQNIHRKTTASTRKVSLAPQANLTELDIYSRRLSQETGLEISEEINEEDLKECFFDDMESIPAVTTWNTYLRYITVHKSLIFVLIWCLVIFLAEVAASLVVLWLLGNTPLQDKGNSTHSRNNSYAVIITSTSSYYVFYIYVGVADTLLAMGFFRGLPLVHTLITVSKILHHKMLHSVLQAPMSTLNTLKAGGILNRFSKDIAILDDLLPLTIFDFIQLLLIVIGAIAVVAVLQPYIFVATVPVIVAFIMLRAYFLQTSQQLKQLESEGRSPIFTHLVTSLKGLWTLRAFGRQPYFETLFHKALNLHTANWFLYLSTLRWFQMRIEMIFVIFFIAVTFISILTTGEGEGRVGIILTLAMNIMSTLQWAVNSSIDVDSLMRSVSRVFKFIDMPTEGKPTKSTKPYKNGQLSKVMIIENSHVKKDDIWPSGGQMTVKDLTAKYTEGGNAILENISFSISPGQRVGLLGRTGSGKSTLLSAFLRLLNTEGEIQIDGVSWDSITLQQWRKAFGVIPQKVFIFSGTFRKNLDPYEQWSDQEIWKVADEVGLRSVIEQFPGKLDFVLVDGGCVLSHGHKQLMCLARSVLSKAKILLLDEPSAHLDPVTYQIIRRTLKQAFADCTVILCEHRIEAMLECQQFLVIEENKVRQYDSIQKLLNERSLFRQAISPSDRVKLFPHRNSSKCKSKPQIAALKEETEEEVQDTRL

Row | SMILES | EC50 | Max. Activity
1 | CC1CN(c2ccc3c(n2)N2C[C@@H](CCCNc4cccc(n4)S(=O)(=O)NC3=O)CC2(C)C)C(=O)C1CCC(C)(C)C (stereo partly drawn) [Compound 97, (14S)-8-[3-(3,3-dimethylbutyl)-4-methyl-2-oxopyrrolidin-1-yl]-12,12-dimethyl-2λ^6-thia-3,9,11,18,23-pentaazatetracyclo[17.3.1.111,14.05,10]tetracosa-1(22),5,7,9,19(23),20-hexaene-2,2,4-trione] | < 1000 nM | +++ (+++ is >60%)
2 | CC(C)(C)CCC1C(=O)N(c2ccc3c(n2)N2C[C@@H](CCCNc4cccc(n4)S(=O)(=O)NC3=O)CC2(C)C)CC1(C)C (stereo partly drawn) [Compound 98, (14S)-8-[3-(3,3-Dimethylbutyl)-4,4-dimethyl-2-oxopyrrolidin-1-yl]-12,12-dimethyl-2λ^6-thia-3,9,11,18,23-pentaazatetracyclo[17.3.1.111,14.05,10]tetracosa-1(22),5,7,9,19(23),20-hexaene-2,2,4-trione] | < 1000 nM | ++ (++ is 30-60%)
3 | CC1(CC2CCN(c3ccc4c(n3)N3C[C@@H](CCCNc5cccc(n5)S(=O)(=O)NC4=O)CC3(C)C)C2=O)CCCCC1 (stereo partly drawn) [Compound 101, (14S)-12,12-dimethyl-8-{3-[(1-methylcyclohexyl)methyl]-2-oxopyrrolidin-1-yl}-2λ^6-thia-3,9,11,18,23-pentaazatetracyclo[17.3.1.111,14.05,10]tetracosa-1(22),5,7,9,19(23),20-hexaene-2,2,4-trione] | < 1000 nM | ++ (++ is 30-60%)
4 | CC(C)(C)CCCC1CCN(c2ccc3c(n2)N2C[C@@H](CCCNc4cccc(n4)S(=O)(=O)NC3=O)CC2(C)C)C1=O (stereo partly drawn) [Compound 102, (14S)-8-[3-(4,4-Dimethylpentyl)-2-oxopyrrolidin-1-yl]-12,12-dimethyl-2λ^6-thia-3,9,11,18,23-pentaazatetracyclo[17.3.1.111,14.05,10]tetracosa-1(22),5,7,9,19(23),20-hexaene-2,2,4-trione] | < 1000 nM | +++ (+++ is >60%)
5 | CC(C)(C)CCN1CCN(c2ccc3c(n2)N2C[C@@H](CCCNc4cccc(n4)S(=O)(=O)NC3=O)CC2(C)C)C1=O [Compound 128, (14S)-8-[3-(3,3-dimethylbutyl)-2-oxoimidazolidin-1-yl]-12,12-dimethyl-2λ^6-thia-3,9,11,18,23-pentaazatetracyclo[17.3.1.111,14.05,10]tetracosa-1(22),5,7,9,19(23),20-hexaene-2,2,4-trione] | < 1000 nM | +++ (+++ is >60%)
6 | CN1CCCCC2CN(c3nc(-n4ccc(OCCC5(C(F)(F)F)CC5)n4)ccc3C(=O)NS(=O)(=O)c3ccc1nc3)C(C)(C)C2 (centres unmarked) [Compound 132, 12,12,19-trimethyl-8-(3-{2-[1-(trifluoromethyl)cyclopropyl]ethoxy}-1H-pyrazol-1-yl)-2λ^6-thia-3,9,11,19,21-pentaazatetracyclo[18.2.2.111,14.05,10]pentacosa-1(23),5,7,9,20(24),21-hexaene-2,2,4-trione] | < 1000 nM | ++ (++ is 30-60%)
7 | CC1(C)C[C@@H]2CCCNc3cccc(n3)S(=O)(=O)NC(=O)c3ccc(N4CCC(OCCC5(C(F)(F)F)CC5)C4=O)nc3N1C2 (stereo partly drawn) [Compound 158, (14S)-12,12-Dimethyl-8-(2-oxo-3-{2-[1-(trifluoromethyl)cyclopropyl]ethoxy}pyrrolidin-1-yl)-2λ^6-thia-3,9,11,18,23-pentaazatetracyclo[17.3.1.111,14.05,10]tetracosa-1(22),5,7,9,19(23),20-hexaene-2,2,4-trione] | < 1000 nM | +++ (+++ is >60%)
8 | CC(C)(C)CCN1CCN(c2ccc3c(n2)N2CC(CCCn4ccc(n4)S(=O)(=O)NC3=O)CC2(C)C)C1=O (centres unmarked) [Compound 168, 4-[3-(3,3-dimethylbutyl)-2-oxoimidazolidin-1-yl]-20,20-dimethyl-10λ^6-thia-1,3,9,14,22-pentaazatetracyclo[16.2.1.111,14.02,7]docosa-2,4,6,11(22),12-pentaene-8,10,10-trione] | > 3000 nM | + (+ is <30%)
9 | CC(C)(C)CCCN1CCN(c2ccc3c(n2)N2CC(CCCn4ccc(n4)S(=O)(=O)NC3=O)CC2(C)C)C1=O (centres unmarked) [Compound 169, 4-[3-(4,4-dimethylpentyl)-2-oxoimidazolidin-1-yl]-20,20-dimethyl-10λ^6-thia-1,3,9,14,22-pentaazatetracyclo[16.2.1.111,14.02,7]docosa-2,4,6,11(22),12-pentaene-8,10,10-trione] | < 1000 nM | ++ (++ is 30-60%)
10 | CC1(C)C[C@H]2CCCn3ccc(n3)S(=O)(=O)NC(=O)c3ccc(-n4ccc(OCCC5C6(CC6)C56CC6)n4)nc3N1C2 [Compound 186, (18R)-4-[3-(2-{dispiro[2.0.2.1]heptan-7-yl}ethoxy)-1H-pyrazol-1-yl]-20,20-dimethyl-10λ^6-thia-1,3,9,14,22-pentaazatetracyclo[16.2.1.111,14.02,7]docosa-2,4,6,11(22),12-pentaene-8,10,10-trione] | < 1000 nM | + (+ is <30%)
11 | CC(C)(C)CCCN1CCN(c2ccc3c(n2)N2C[C@@H](CCCNc4cccc(n4)S(=O)(=O)NC3=O)CC2(C)C)C1=O [Compound 193, (14S)-8-[3-(4,4-dimethylpentyl)-2-oxoimidazolidin-1-yl]-12,12-dimethyl-2λ^6-thia-3,9,11,18,23-pentaazatetracyclo[17.3.1.111,14.05,10]tetracosa-1(22),5,7,9,19(23),20-hexaene-2,2,4-trione] | < 1000 nM | +++ (+++ is >60%)
12 | CC1(C)C[C@@H]2CCCNc3cccc(n3)S(=O)(=O)NC(=O)c3ccc(N4CCN(C5CCCCC5)C4=O)nc3N1C2 [Compound 200, (14S)-8-(3-cyclohexyl-2-oxoimidazolidin-1-yl)-12,12-dimethyl-2λ^6-thia-3,9,11,18,23-pentaazatetracyclo[17.3.1.111,14.05,10]tetracosa-1(22),5,7,9,19(23),20-hexaene-2,2,4-trione] | < 1000 nM | + (+ is <30%)
13 | CC1(C)C[C@@H]2CCCNc3cccc(n3)S(=O)(=O)NC(=O)c3ccc(N4CCN(CCCC5(C(F)(F)F)CC5)C4=O)nc3N1C2 [Compound 205, (14S)-12,12-Dimethyl-8-(2-oxo-3-{3-[1-(trifluoromethyl)cyclopropyl]propyl}imidazolidin-1-yl)-2λ^6-thia-3,9,11,18,23-pentaazatetracyclo[17.3.1.111,14.05,10]tetracosa-1(22),5,7,9,19(23),20-hexaene-2,2,4-trione] | < 1000 nM | +++ (+++ is >60%)
14 | CC1CCC2CN(c3nc(N4CCN(CCC(C)(C)C)C4=O)ccc3C(=O)NS(=O)(=O)c3cccc(n3)N1)C(C)(C)C2 (centres unmarked) [Compound 209, 8-[3-(3,3-Dimethylbutyl)-2-oxoimidazolidin-1-yl]-12,12,17-trimethyl-2λ^6-thia-3,9,11,18,23-pentaazatetracyclo[17.3.1.111,14.05,10]tetracosa-1(22),5,7,9,19(23),20-hexaene-2,2,4-trione] | < 1000 nM | ++ (++ is 30-60%)
15 | CC1CCC2CN(c3nc(N4CCN(CCC(C)(C)C)C4=O)ccc3C(=O)NS(=O)(=O)c3cccc(n3)N1)C(C)(C)C2 (centres unmarked) [Compound 210, 8-[3-(3,3-dimethylbutyl)-2-oxoimidazolidin-1-yl]-12,12,17-trimethyl-2λ^6-thia-3,9,11,18,23-pentaazatetracyclo[17.3.1.111,14.05,10]tetracosa-1(22),5,7,9,19(23),20-hexaene-2,2,4-trione] | < 1000 nM | ++ (++ is 30-60%)
16 | CC1(C)C[C@@H]2CCCNc3cccc(n3)S(=O)(=O)NC(=O)c3ccc(N4CCN(CCC5(C(F)(F)F)CC5)C4=O)nc3N1C2 [Compound 211, (14S)-12,12-Dimethyl-8-(2-oxo-3-{2-[1-(trifluoromethyl)cyclopropyl]ethyl}imidazolidin-1-yl)-2λ^6-thia-3,9,11,18,23-pentaazatetracyclo[17.3.1.111,14.05,10]tetracosa-1(22),5,7,9,19(23),20-hexaene-2,2,4-trione] | < 1000 nM | ++ (++ is 30-60%)
17 | CC1(C)C[C@@H]2CCCNc3cccc(n3)S(=O)(=O)NC(=O)c3ccc(N4CC5CCCCN5C4=O)nc3N1C2 (stereo partly drawn) [Compound 213, (14S)-12,12-dimethyl-8-{3-oxo-octahydroimidazo[1,5-a]pyridin-2-yl}-2λ^6-thia-3,9,11,18,23-pentaazatetracyclo[17.3.1.111,14.05,10]tetracosa-1(23),5(10),6,8,19,21-hexaene-2,2,4-trione] | > 3000 nM | + (+ is <30%)
18 | CC1(C)C[C@@H]2CCCNc3cccc(n3)S(=O)(=O)NC(=O)c3ccc(N4CCN(CC5CCC(F)(F)CC5)C4=O)nc3N1C2 [Compound 214, (14S)-8-{3-[(4,4-Difluorocyclohexyl)methyl]-2-oxoimidazolidin-1-yl}-12,12-dimethyl-2λ^6-thia-3,9,11,18,23-pentaazatetracyclo[17.3.1.111,14.05,10]tetracosa-1(22),5,7,9,19(23),20-hexaene-2,2,4-trione] | < 1000 nM | ++ (++ is 30-60%)
19 | CC1(C)CCC(CN2CCN(c3ccc4c(n3)N3C[C@@H](CCCNc5cccc(n5)S(=O)(=O)NC4=O)CC3(C)C)C2=O)CC1 [Compound 217, (14S)-8-{3-[(4,4-Dimethylcyclohexyl)methyl]-2-oxoimidazolidin-1-yl}-12,12-dimethyl-2λ^6-thia-3,9,11,18,23-pentaazatetracyclo[17.3.1.111,14.05,10]tetracosa-1(22),5,7,9,19(23),20-hexaene-2,2,4-trione] | < 1000 nM | ++ (++ is 30-60%)
